From PMC12518639, “Apomorphine is a novel necroptosis inhibitor targeting mixed lineage kinase domain-like protein oligomerization” (Cell Death Discovery, 2025)

How the values were obtained:
[1] = system: J774A.1 cells transfected with Wt-mMLKL (1–464)-gyrase; assay: PI uptake after chemically induced mMLKL-gyrase dimerization; assay type: cell-based, mouse; conditions: 20 μM overnight
Protocol: PI uptake assays were performed in triplicate to evaluate pore formation on the plasma membrane. THP‑1 cells (2 × 10⁵ cells/well) were seeded in black-walled, clear-bottom 96-well plates and treated with TBZ (TNF, BV6, and z-VAD-FMK) in the presence or absence of candidate compounds for 8 h to induce necroptosis. […] PI (556463, BD Biosciences, San Jose, CA, USA) was added at a final concentration of 1 μg/mL for 10 min before measurement. Fluorescence was recorded using a Varioskan Flash 3001 plate reader (Thermo Fisher Scientific, Waltham, MA, USA).
J774A.1 cells were transfected with plasmids encoding mMLKL (1–464)-gyrase. mMLKL-gyrase expression was induced with 10 ng/mL doxycycline (Dox), followed by 700 nM coumermycin treatment for 4 h to promote dimerization. Then, Ox-APO (20 μM) was added, and the cells were incubated overnight. PI uptake was measured using a microplate reader, and the values were normalized to those of the untreated group. Data represent mean ± SEM (n = 3). **p < 0.01, ***p < 0.001, one-way ANOVA. The expression of mMLKL-gyrase was confirmed by SDS-PAGE of WCLs, followed by immunoblotting with the indicated antibodies. The arrowhead indicates endogenous MLKL, while the tailed arrow denotes the mMLKL–gyrase fusion protein.

p-MLKL = assay: Western blot of phosphorylated MLKL in whole cell lysates; assay type: cell-based, human; conditions: 8 h
Protocol: To identify potential inhibitors of the necroptosis pathway targeting MLKL or the process of p-MLKL pore formation on the membrane, we screened a library of 2150 compounds, including FDA-approved drugs and those in phase 1–3 clinical trials, using THP-1-HMGB1-Lucia™ cells expressing the HMGB1-luciferase fusion protein. The cells were treated with a necroptosis-inducing mixture containing TNF-α, BV6, and Z-VAD-FMK (TBZ) in addition to the compound library (Fig. 1A). The supernatants were harvested to measure luciferase activities for necroptosis. The luciferase activities of cell supernatants treated with TBZ alone were considered as the maximum release (100%) of HMGB1-luciferase. NEC-1, a known RIP1 inhibitor used in both humans and mice, was used as a positive control. […] Next, we performed a propidium iodide (PI) uptake assay to exclude cytotoxic compounds using THP-1 cells. Then, we selected candidate molecules that were arbitrarily less than 30% of those treated with TBZ. […] Next, the inhibition levels of p-MLKL were tested to select MLKL-targeting molecules (Figs. 1C and S1A). Compounds that reduced p-MLKL levels to less than 30% of TBZ-treated controls were considered as potential inhibitors of MLKL phosphorylation. Conversely, compounds that maintained p-MLKL levels above 70% were selected because they are presumed to prevent the formation of pores in the plasma membrane by interfering with oligomerization.
The cells were harvested and lysed in 1× RIPA buffer (R4100-010, GenDEPOT, Katy, TX, USA) containing protease (P3100-001, GenDEPOT) and phosphatase (1862495, Thermo Fisher Scientific) inhibitors. WCLs were then centrifuged at 20,000×g for 30 min at 4 °C and subjected to non-reducing or reducing 8–12% SDS-PAGE gel electrophoresis. The membrane was blocked with 5% non-fat milk in TBS and probed with antibodies. Antibodies to hMLKL (14993S), mMLKL (97705S), phospho-hMLKL (Ser358) (91689S), phospho-mMLKL (Ser345) (37333S), phospho-hRIP1 (Ser166) (65746S), mRIP1 (3493S), phospho-mRIP1 (Ser321) (38662S), phospho-hRIP3 (Ser227) (93654), mRIP3 (95702S), p-mRIP3 (Thr231/Ser232) (91702S), and LDH (2012S) (Cell Signaling Technology, Danvers, MA, USA), and GAPDH (LF-PA0018, Abfrontier, S. Korea), hRIP1 (ab72139, Abcam, Cambridge, UK), hRIP3 (sc-135170, Santa Cruz Biotechnology, Dallas, TX, USA), HMGB1 (ab78923, Abcam), and LAMP1 (ab24170, Abcam) antibodies were used.
Fig. S1 Assessment of p-MLKL inhibition to identify MLKL-targeting molecules. (A) Quantification graph corresponding to Fig. 1C. […] Whole-cell lysates (WCLs) were collected and subjected to Western blot analysis under reducing conditions using antibodies against p-MLKL, MLKL, and GAPDH. The p-MLKL/MLKL ratio was quantified and compared to that of TBZ-treated cells. Data represent the mean of three independent experiments. (B) Quantification graph corresponding to Fig. 1D. […] Cytosolic and membrane fractions were collected and analyzed by Western blot under reducing conditions. The levels of p-MLKL and p-RIP1 were normalized to LDH (cytosolic marker) and LAMP1 (membrane marker), respectively. Quantified ratios were compared to those of TBZ-treated cells (n = 3 independent experiments).

SMILES	PI-positive cells after Dox and coumermycin stimulation [1]	activity at 20 µM (p-MLKL; Homo sapiens, THP-1, TBZ and 20 μM compound, whole cell lysates, read-out: p-MLKL/MLKL ratio relative to TBZ-treated cells (% Value)) [%]	effect on p-MLKL, p-RIP3 and p-RIP1 in whole cell lysates (p-MLKL; THP-1, TBZ, 20 μM)
CN1CCc2cccc3c4c(cc1c23)C=CC(=O)C4=O [Ox-APO]	markedly reduced		
CN1CCc2cccc3c2[C@@H]1Cc1ccc(O)c(O)c1-3 [S62, (6aS)-6-methyl-5,6,6a,7-tetrahydro-4H-dibenzo[de,g]quinoline-10,11-diol]		100	little to no effect
